Test results taken from US20230023009A1, “HETEROCYCLIC COMPOUNDS AND METHODS OF USE THEREOF” (SPARCBIO LLC, priority 2020, published 2023).

How the values were obtained:
NCI-H358 cells = test: 3D cell proliferation assay (Cell Titer-Glo 3D, 7 days); format: cell-based; conditions: Homo sapiens, NCI-H358, 168 h, NCI-H358 3D, ultra-low attachment plate
Method: NCI-H358 cells (ATCC® CRL-5807™) were plated in a 384-well Black/Clear Round Bottom Ultra-Low Attachment Microplate (Corning) in medium (RPMI-1640+10% FBS) at a density of 1000 cells in 50 μL per well, then incubated overnight at 37° C. and 5% CO2. Cells were treated with test compounds at 9 concentrations within a specified concentration range (e.g., 0.5 nM-10 μM) for generation of dose response curves. Test compounds were prepared by 1:3 serial dilution in DMSO from a specified starting concentration (e.g., 20 μM, 2 μM or 0.2 μM) and then added to wells of the assay plate in a total volume of 150 nL DMSO. The cells were further incubated at 37° C. and 5% CO2 for 7 days. Cell viability was assessed by adding 40 μL of Cell Titer-Glo® 3D reagent (Cat. No.: G9683, Promega) to each well and reading luminescence after mixing and incubation of the samples. The IC50 value of each test compound was calculated with XLFit curve fitting software.

MIA PaCa-2 = test: Cell proliferation assay panel (Cell Titer-Glo, 72 hr); format: cell-based; conditions: Homo sapiens, MIA PaCa-2, 72 h
Method: Potency of compounds was determined in cell proliferation assays in a panel of cancer cell lines. Cells were seeded in 384-well plates (Corning, Cat. #3765) at specified densities in 40 μL of culture medium and incubated overnight at 37° C. in a 5% CO2 incubator (culture conditions). With a robotic dispenser, serially diluted test compounds were added in a volume of 20 nL DMSO to wells in the culture plate to achieve the final desired concentrations of test compounds, and the cells were further incubated in culture conditions for 72 hr. The assay was terminated by addition of 25 μL of Cell Titer-Glo reagent (Promega, Madison, Wis.) to each well. Contents were mixed, the plate was incubated for 10 min at room temperature and luminescence was measured. The IC50 value of each test compound was calculated with XLFit curve fitting software. Results are shown in Table 4. ‘+++’ indicates IC50 values≤300 nM, ‘++’ indicates IC50 values between 300 nM-3 μM, and ‘+’ indicates IC50 values≥3 μM.

[1] = system: Phosphorylation of ERK in NCI-H358 cells; test: pERK assay (Method II, homogeneous TR-FRET); format: cell-based; conditions: Homo sapiens, 4 hrs compound treatment
Method: Method II. Phosphorylation of ERK was assessed by a homogeneous TR-FRET assay (Advanced phospho-ERK (Thr202/Tyr204) cellular kit; Cat. #64AERPEH, Cisbio). In brief, NCI-H358 cells were seeded in a 384-well culture plate at a density of 6000 cells in 40 μL medium/well and grown overnight at 37° C. and 5% CO2. Each test compound was dosed in duplicate in a 10-dose 3-fold titration starting at 10 μM or 2 μM. The culture plate was then incubated for 4 hrs in the incubator. At the end of the compound treatment, the medium was removed, 35 μL of lysis buffer was added to each well, and the plate was agitated on a plate shaker for 40 mins at 4° C. An antibody cocktail of phospho-ERK1/2 Eu Cryptate antibody and Phospho-ERK1/2 d2 antibody was prepared by separately diluting the antibodies 20-fold with detection buffer and then mixing them together. 3.4 μL of antibody cocktail was dispensed to each well of an empty 384-well white ProxiPlus assay plate (Perkin Elmer), and the plate briefly centrifuged. 13.6 μL of cell lysate was then added to the antibody-containing wells, and the plate was briefly centrifuged and then incubated 2 hrs at room temperature. The plate was read on a fluorescence plate reader (Envision2104, Perkin Elmer), with an excitation wavelength of 337 nm and emission wavelengths of 615 nm and 665 nm. The IC50 value of each test compound was calculated with XLFit curve fitting software. Results are shown in Table 6. ‘+++’ indicates IC50 values≤300 nM, ‘++’ indicates IC50 values between 300 nM-3 μM, and ‘+’ indicates IC50 values≥3 μM.

KRAS G12C protein = KRAS G12C protein (Homo sapiens, UniProt P01116, G12C); test: Nucleotide exchange assay (Method III, KRAS G12C/Raf-RBD TR-FRET); format: biochemical; conditions: SOS1-mediated exchange of GDP for GTP, 18 hr compound incubation
Chain of KRAS G12C protein (P01116 1-188 isoform P01116-2 G12C): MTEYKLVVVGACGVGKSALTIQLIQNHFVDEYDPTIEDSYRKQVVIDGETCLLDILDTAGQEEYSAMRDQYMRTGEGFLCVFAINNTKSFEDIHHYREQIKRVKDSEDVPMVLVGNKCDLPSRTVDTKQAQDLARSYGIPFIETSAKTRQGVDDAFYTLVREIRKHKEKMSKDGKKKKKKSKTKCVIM
Method: Method III. Inhibition of SOS1-mediated exchange of GDP for GTP on the KRAS G12C protein was measured in a biochemical assay that monitors association of KRAS G12C protein with the Ras-binding domain of Raf (Raf-RBD), where the association is coupled to exchange of GDP to GTP on the KRAS G12C protein. The assay was performed at WuXi AppTec (Shanghai, China). Compounds were serially diluted in 3-fold dilutions to 11 concentrations and spotted into the wells of an assay plate in a total volume of 150 nL DMSO per well. A 2× enzyme mix was prepared by diluting GDP-bound, His-tagged KRAS G12C to 25 nM in assay buffer. 10 μL/well of 2× enzyme mix was added to all wells, and the plate was sealed and incubated overnight (18 hr) at 23° C. 4×SOS1/GDP and 4×SOS1/GTP were prepared in assay buffer. 5 μL/well of 4×SOS1/GDP mix was added to negative control wells, 5 μL/well of 4×SOS1/GTP mix was added to the remaining wells, and the plate was further incubated at 23° C. for 1 hr. Finally, FLAG-tagged Raf-RBD is added to the reaction mixture along with a pair of FRET donor- and acceptor-conjugated antibodies specific for the FLAG-tagged Raf-RBD and His-tagged KRAS G12C proteins. A 4×Raf-RBD/Tb-anti-FLAG/D2-anti-His mix was prepared in assay buffer, and 5 μL/well of the mix was added to all wells, followed by incubation at room temperature for 2 hr. The TR-FRET signals, which increase with association of KRAS G12C and Raf-RBD, were measured on a Perkin Elmer Envision 2104 plate reader, and data were analyzed by non-linear regression to obtain IC50 values for inhibition by compounds. Table 2 includes results of the assay of Method III. ‘+++’ indicates IC50 values≤300 nM, ‘++’ indicates IC50 values between 300 nM-3 μM, and ‘+’ indicates IC50 values≥3 μM.

Structure (SMILES): C/C=C/C(=O)N1CCN(c2nc(OC[C@@H]3CCCN3C)nc3c2COC(c2cccc4cccc(Cl)c24)C3)C[C@@H]1CC#N (single isomer, unassigned) [241 (Isomer A)]
- IC50 (NCI-H358 cells): ≤ 100 nM
- IC50 (MIA PaCa-2): 300 to 3000 nM
- IC50 [1]: ≤ 300 nM
- IC50 (KRAS G12C protein): ≤ 300 nM

Structure (SMILES): C=C(F)C(=O)N1CCN(c2nc(OC[C@@H]3CCCN3C)nc3c2COC(c2c(C)ccc4[nH]ncc24)C3)C[C@@H]1CC#N (single isomer, unassigned) [52 (Isomer B)]
- IC50 (NCI-H358 cells): 100 to 2000 nM
- IC50 (MIA PaCa-2): 300 to 3000 nM
- IC50 [1]: 300 to 3000 nM
- IC50 (KRAS G12C protein): ≤ 300 nM

Structure (SMILES): CC#CC(=O)N1CCN(c2nc(OC[C@@H]3CCCN3C)nc3c2COC(c2cccc4cccc(Cl)c24)C3)C[C@@H]1CC#N (single isomer, unassigned) [243 (Isomer B)]
- IC50 (NCI-H358 cells): ≤ 100 nM
- IC50 (MIA PaCa-2): ≤ 300 nM
- IC50 [1]: ≤ 300 nM
- IC50 (KRAS G12C protein): ≤ 300 nM
